Results as given in the NIST ThermoML archive (doi:10.1021/je1012229).

Conditions: 101.33 kPa, Liquid, Vibrating tube method

CCCCn1cc[n+](C)c1.F[P-](F)(F)(F)(F)F [1-butyl-3-methylimidazolium hexafluorophosphate]
Conditions	mass density [kg/m3]
283.15 K	1380.2
293.15 K	1372
303.15 K	1362.6
313.15 K	1354.1
323.15 K	1345.7
333.15 K	1339.1
343.15 K	1331.7
353.15 K	1323.4
363.15 K	1314.2
